According to PMC8071274 (International Journal of Molecular Sciences, 2021):
“Also recorded” adds a separate entry of the source. Values belong to the compound of their own block, whether it stands above or below them. Where a SMILES comes first, the peptide text is derived from it. Where no end group is shown, it is not given here. The star is where a group is joined. For = O=C*

How the values were obtained:
[1] = Time-dependent alteration of molecular forms of MCT-2(1–15) in mouse serum (RP-HPLC, MALDI-TOF-MS); type: in vitro ADME; settings: 37 °C; for time of maximum amount of the degradation product in serum: RP-HPLC, MALDI-TOF-MS
Protocol: Male C57BL/6JJcl mice, 12–14 weeks of age, weighing 25–30 g, were anesthetized (50 mg/kg pentobarbital), and blood was collected from the caudal vena cava and stored overnight at 4 °C. The blood sample was centrifuged at 4 °C and 20,000× g for 20 min, and the supernatant was transferred to a new tube as mouse serum and stored at −80 °C. MCT-2(1–15) was incubated in mouse serum at a final concentration of 500 μM at 37 °C, and aliquots (100 μL) were collected from the incubation mixture after 0, 1, 2, 4, 24, and 48 h. These aliquots were mixed with TCA (final concentration: 3% w/v) and kept on ice for 30 min to precipitate denatured proteins. The samples were centrifuged at 4 °C and 13,000× g for 15 min, and the supernatants were analyzed by RP-HPLC on a C18 column (4.6 × 150 mm, Cosmosil; Nacalai Tesque, Inc.). RP-HPLC peaks that contained MCT-2(1–15) and its derivative peptides were analyzed by MALDI-TOF-MS to identify their molecular forms.

[2] = system: differentiated HL-60 cells; type: cell-based, human; settings: 72 h
Protocol: HEK-293 cells (American Type Culture Collection, Manassas, VA, USA) were maintained in DMEM (Thermo Fisher Scientific, Waltham, MA, USA) containing 10% FBS (Thermo Fisher Scientific) in a humidified atmosphere at 5% CO2 and 37 °C. Human acute leukemia-derived HL-60 cells (RIKEN Cell Bank, Ibaraki, Japan) were cultured in RPMI-1640 medium (Thermo Fisher Scientific) containing 10% FBS in a humidified atmosphere at 5% CO2 and 37 °C. HL-60 cells were treated with 500 μM dibutyryl-cAMP (Sigma-Aldrich, St. Louis, MO, USA) for 72 h to differentiate the cells into neutrophilic/granulocytic cells as described elsewhere. The ability of MCT-2-related peptides to activate HL-60 cells differentiated into neutrophilic/granulocytic cells was evaluated by stimulation of β-hexosaminidase secretion from the cells. Briefly, differentiated HL-60 cells were washed 3 times with ice-cold HEPES-buffered Hank’s solution (HBHS; 10 mM HEPES, 136.9 mM NaCl, 5.4 mM KCl, 1.2 mM CaCl2, 0.44 mM KH2PO4, 0.49 mM MgCl2, 0.41 mM MgSO4, 0.34 mM Na2HPO4, 5.5 mM glucose, 4.2 mM NaHCO3, and 0.1% BSA, pH 7.4). The cells were resuspended in HBHS at a density of 5.6 × 10^6 cells/mL, and DNase I (Sigma-Aldrich) and cytochalasin B (Sigma-Aldrich) were each added at a final concentration of 5 μg/mL. The cell suspension in each tube (5.0 × 10^5 cells/90 μL) was preincubated at 37 °C for 10 min and stimulated with 10 μL synthetic peptide solution at 37 °C for 10 min. The inhibitory effects of inhibitors against FPR1 [CysH (Sigma-Aldrich)] and FPR2 [PBP10 (Tocris Bioscience, Bristol, UK)] on β-hexosaminidase release induced by MCT-2 and its derivatives were also evaluated in the differentiated HL-60 cells; each cell suspension prepared as above (90 μL) was transferred to a tube (5.0 × 10^5 cells/tube) with 5 μL inhibitor solution for FPR1 (CysH) or FPR2 (PBP10). Each tube was then preincubated at 37 °C for 10 min and stimulated with 5 μL synthetic peptide solution at 37 °C for 10 min. After stimulation, 200 μL ice-cold reaction quenching buffer (25 mM Tris, 123 mM NaCl, and 2.7 mM KCl, pH 7.4) was added to each cell suspension to stop the reaction. Thereafter, these tubes were centrifuged at 4 °C and 2300× g for 1 min, and each supernatant was transferred into a new tube. β-Hexosaminidase activity in the supernatant was measured as described previously. Briefly, 90 μL supernatant was transferred to each well of a 96-well microtiter plate, and 60 μL of a substrate solution for β-hexosaminidase [10 mM p-nitrophenyl N-acetyl-β-D-glucosaminide (Sigma-Aldrich), 40 mM citrate, and 70 mM NaHPO4, pH 4.5] was added to initiate the enzyme reaction. After incubation of the plate at 37 °C for 1 h, 100 μL of 400 mM glycine (pH 10.7) was added to stop the reaction. The absorbance at 415 nm for the resulting p-nitrophenol and at 490 nm for the reference was measured using a microtiter plate reader (Viento XS; BioTek Instruments, Winooski, VT, USA). The ability of each peptide to induce β-hexosaminidase release was expressed as a percentage of enzyme secretion promoted by 10 μM MCT-2(1–15) that induced the maximum response for the elucidation of full or partial agonists to the activity of MCT-2(1–15) (Figure 2 and Figure 4, Table 2) or a percentage of the total enzyme activity, which was the enzyme activity released after disruption of the cells with 0.05% Triton X-100 (Figure 3).

mouse serum = settings: Male C57BL/6JJcl mice, 37 °C, up to 48 h
[3] = product formed from 500 μM MCT-2(1–15) in mouse serum
[4] = product formed from 500 μM MCT-2(1–15) in mouse serum, 4 h

time of first detection of the degradation product in serum [1, 3]: 1 h
time the degradation product was present in serum [1, 3]: more than 48 h
presence of the degradation product in serum at 48 h ([1]; product formed from 500 μM MCT-2(1–15) in mouse serum, 48 h): still present
time of maximum amount of the degradation product in serum [1, 3]: 4 h
EC50 [2]: 18 µM
Compound: CSCC[C@H](NC(=O)[C@@H]1CCCN1C(=O)[C@@H](NC(=O)[C@H](CCSC)NC=O)[C@@H](C)O)C(=O)O [MCT-2(1–4)] (For-MTPM-OH)

time of first detection of the degradation product in serum [1, 3]: 1 h
presence of the degradation product in serum at 4 h [1, 4]: not found
time of maximum amount of the degradation product in serum [1, 3]: 2 h
EC50 [2]: 1.8 ± 0.173 µM
Compound: CC[C@H](C)[C@H](NC(=O)[C@H](CCCCN)NC(=O)[C@H](CCCNC(=N)N)NC(=O)[C@H](CCSC)NC(=O)[C@@H]1CCCN1C(=O)[C@@H](NC(=O)[C@H](CCSC)NC=O)[C@@H](C)O)C(=O)N[C@@H](CC(N)=O)C(=O)N1CCC[C@H]1C(=O)N[C@@H](CC(C)C)C(=O)O [MCT-2(1–10)] (For-MTPMRKINPL-OH)

time of first detection of the degradation product in serum [1, 3]: 1 h
presence of the degradation product in serum at 4 h [1, 4]: not found
time of maximum amount of the degradation product in serum [1, 3]: 1 h
EC50 [2]: 0.547 ± 0.0939 µM
Compound: CC[C@H](C)[C@H](NC(=O)[C@H](CCCCN)NC(=O)[C@H](CCCNC(=N)N)NC(=O)[C@H](CCSC)NC(=O)[C@@H]1CCCN1C(=O)[C@@H](NC(=O)[C@H](CCSC)NC=O)[C@@H](C)O)C(=O)N[C@@H](CC(N)=O)C(=O)N1CCC[C@H]1C(=O)N[C@@H](CC(C)C)C(=O)N[C@@H](CCSC)C(=O)O [MCT-2(1–11)] (For-MTPMRKINPLM-OH)

metabolised at 1 h, 500 μM ([1]; male, C57BL/6JJcl, mouse serum, 500 μM peptide, 1 h, TCA precipitation, RP-HPLC (214 nm), read-out: reduction of amount of peptide in serum at 1 h): ~50%
metabolised at 2 h, 500 μM ([1]; male, C57BL/6JJcl, mouse serum, 500 μM peptide, 2 h, TCA precipitation, RP-HPLC (214 nm), read-out: reduction of amount of peptide in serum at 2 h): ~80%
half-life at 500 μM ([1]; male, C57BL/6JJcl, mouse serum, 500 μM peptide, RP-HPLC (214 nm)): ~1 h
peptide remaining in serum at 4 h ([1]; mouse serum, 500 μM peptide, 4 h, RP-HPLC (214 nm)): completely disappeared
EC50 [2]: 0.02 ± 0.00339 µM
Compound: CC[C@H](C)[C@H](NC(=O)[C@H](CC(C)C)NC(=O)[C@H](CCCCN)NC(=O)[C@H](CCSC)NC(=O)[C@H](CC(C)C)NC(=O)[C@@H]1CCCN1C(=O)[C@H](CC(N)=O)NC(=O)[C@@H](NC(=O)[C@H](CCCCN)NC(=O)[C@H](CCCNC(=N)N)NC(=O)[C@H](CCSC)NC(=O)[C@@H]1CCCN1C(=O)[C@@H](NC(=O)[C@H](CCSC)NC=O)[C@@H](C)O)[C@@H](C)CC)C(=O)N[C@@H](CC(N)=O)C(=O)O [MCT-2(1–15), Mitocryptide-2] (For-MTPMRKINPLMKLIN-OH)

EC50 [2]: 0.073 ± 0.0133 µM
Compound: CC[C@H](C)[C@H](NC(=O)[C@H](CC(C)C)NC(=O)[C@H](CCCCN)NC(=O)[C@H](CCSC)NC(=O)[C@H](C)NC(=O)[C@@H]1CCCN1C(=O)[C@H](CC(N)=O)NC(=O)[C@@H](NC(=O)[C@H](CCCCN)NC(=O)[C@H](CCCNC(=N)N)NC(=O)[C@H](CCSC)NC(=O)[C@@H]1CCCN1C(=O)[C@@H](NC(=O)[C@H](CCSC)NC=O)[C@@H](C)O)[C@@H](C)CC)C(=O)N[C@@H](CC(N)=O)C(=O)O [[Ala^10]MCT-2] (For-MTPMRKINPAMKLIN-OH)

EC50 [2]: 0.0367 ± 0.011 µM
Compound: CC[C@H](C)[C@H](NC(=O)[C@H](CC(C)C)NC(=O)[C@H](CCCCN)NC(=O)[C@H](C)NC(=O)[C@H](CC(C)C)NC(=O)[C@@H]1CCCN1C(=O)[C@H](CC(N)=O)NC(=O)[C@@H](NC(=O)[C@H](CCCCN)NC(=O)[C@H](CCCNC(=N)N)NC(=O)[C@H](CCSC)NC(=O)[C@@H]1CCCN1C(=O)[C@@H](NC(=O)[C@H](CCSC)NC=O)[C@@H](C)O)[C@@H](C)CC)C(=O)N[C@@H](CC(N)=O)C(=O)O [[Ala^11]MCT-2] (For-MTPMRKINPLAKLIN-OH)

EC50 [2]: 0.0123 ± 0.00029 µM
Compound: CC[C@H](C)[C@H](NC(=O)[C@H](CC(C)C)NC(=O)[C@H](C)NC(=O)[C@H](CCSC)NC(=O)[C@H](CC(C)C)NC(=O)[C@@H]1CCCN1C(=O)[C@H](CC(N)=O)NC(=O)[C@@H](NC(=O)[C@H](CCCCN)NC(=O)[C@H](CCCNC(=N)N)NC(=O)[C@H](CCSC)NC(=O)[C@@H]1CCCN1C(=O)[C@@H](NC(=O)[C@H](CCSC)NC=O)[C@@H](C)O)[C@@H](C)CC)C(=O)N[C@@H](CC(N)=O)C(=O)O [[Ala^12]MCT-2] (For-MTPMRKINPLMALIN-OH)

EC50 [2]: 0.0837 ± 0.00354 µM
Compound: CC[C@H](C)[C@H](NC(=O)[C@H](C)NC(=O)[C@H](CCCCN)NC(=O)[C@H](CCSC)NC(=O)[C@H](CC(C)C)NC(=O)[C@@H]1CCCN1C(=O)[C@H](CC(N)=O)NC(=O)[C@@H](NC(=O)[C@H](CCCCN)NC(=O)[C@H](CCCNC(=N)N)NC(=O)[C@H](CCSC)NC(=O)[C@@H]1CCCN1C(=O)[C@@H](NC(=O)[C@H](CCSC)NC=O)[C@@H](C)O)[C@@H](C)CC)C(=O)N[C@@H](CC(N)=O)C(=O)O [[Ala^13]MCT-2] (For-MTPMRKINPLMKAIN-OH)

EC50 [2]: 0.0767 ± 0.0119 µM
Compound: CC[C@H](C)[C@H](NC(=O)[C@H](CCCCN)NC(=O)[C@H](CCCNC(=N)N)NC(=O)[C@H](CCSC)NC(=O)[C@@H]1CCCN1C(=O)[C@@H](NC(=O)[C@H](CCSC)NC=O)[C@@H](C)O)C(=O)N[C@@H](CC(N)=O)C(=O)N1CCC[C@H]1C(=O)N[C@@H](CC(C)C)C(=O)N[C@@H](CCSC)C(=O)N[C@@H](CCCCN)C(=O)N[C@@H](CC(C)C)C(=O)N[C@@H](C)C(=O)N[C@@H](CC(N)=O)C(=O)O [[Ala^14]MCT-2] (For-MTPMRKINPLMKLAN-OH)

EC50 [2]: 0.0293 ± 0.00149 µM
Compound: CC[C@H](C)[C@H](NC(=O)[C@H](CC(C)C)NC(=O)[C@H](CCCCN)NC(=O)[C@H](CCSC)NC(=O)[C@H](CC(C)C)NC(=O)[C@@H]1CCCN1C(=O)[C@H](CC(N)=O)NC(=O)[C@@H](NC(=O)[C@H](CCCCN)NC(=O)[C@H](CCCNC(=N)N)NC(=O)[C@H](CCSC)NC(=O)[C@@H]1CCCN1C(=O)[C@@H](NC(=O)[C@H](CCSC)NC=O)[C@@H](C)O)[C@@H](C)CC)C(=O)N[C@@H](C)C(=O)O [[Ala^15]MCT-2] (For-MTPMRKINPLMKLIA-OH)

Compound: For-MTPMRKINPLMKLIN
fragment found (mouse serum): MCT-2(1–11), 1 h; also recorded: MCT-2(1–10), 1 h; also recorded: MCT-2(1–4), 1 h

EC50 [2]: > 1000 µM
Compound: MTPMRKINPLMKLIN [Des-N-formyl MCT-2]
